Assay results from patent US20260240878A1, “PTP1B/TC-PTP DUAL INHIBITORS AND PROTEIN DEGRADERS” (Purdue Research Foundation, priority 2023, published 2026).
*1 amine or outer side, *2 acyl side, *3 side chain or, on linkers, in order; H or OH if unused. Where a SMILES comes first, the peptide text is derived from it. [ ]: non-standard residue; d: D form. The star is where a group is joined. NHCH2(1,3-C6H4)CH2CO = O=C(Cc1cccc(CN[*:1])c1)[*:2]; F2Pmp = N[C@@H](Cc1ccc(C(F)(F)P(=O)(O)O)cc1)C(=O)O; Phenylacetyl(4-OH,3-OMe) = COc1cc(CC(=O)*)ccc1O; Benzoyl(3-Br,4-Me) = Cc1ccc(C(=O)*)cc1Br; X1 = Cc1ncsc1-c1ccc([C@H](C)N*)cc1; Hyp = O=C(O)[C@@H]1C[C@@H](O)CN1; Tle = CC(C)(C)[C@H](N)C(=O)O

Tests used:
MC38 syngeneic tumor = MC38 syngeneic tumor study; assay type: in vivo, mouse
Protocol: Quantification was performed based on six representative images from six sections.
For MC38 syngeneic tumor study, 12 weeks C57BL6 female mice were injected subcutaneously with 10^6 MC38 cells for tumor growth. When tumors reached an average volume of 200 mm^3, mice were tumor size-matched and randomly assigned to different experimental groups for experiments. Mice were injected intraperitoneally with saline or 25 or 50 mg/kg compound 47 daily. Tumor sizes and animal weights were measured twice per week (FIGS. 5B-5C). Tumor volume (mm^3)=(length×width^2)/2. At the end of the experiments, mice were euthanized, and tumors were collected for analysis.

PTP1B and TC-PTP [1] = assay: PTP1B/TC-PTP degradation and pJAK1/2 elevation in MEF cells; assay type: cell-based, mouse; settings: 500 nM, 16 hours
Protocol: Deletion of TC-PTP or PTP1B abolished the compound 47-induced phosphorylation of the TC-PTP substrate JAK1 or the PTP1B substrate JAK2. Thus, compound 47 efficiently amplifies cellular […] signaling by degrading PTP1B and TC-PTP. U2OS cells were treated with DMSO or 0.2 μM compound 47 for 16 hours and stimulated with 20 ng/ml IFN-γ for 30 minutes. […] DAPI was used to stain the cell nucleus.
The target engagement by compound 47 inside the cell was ascertained. As negative regulators of IFN-γ signaling, PTP1B and TC-PTP dephosphorylate JAK2 at Y1007/Y1008 and JAK1 at Y1034/Y1035, respectively. In addition, TC-PTP can also directly dephosphorylate STAT family members, including STAT1 and STAT3, in the nucleus to comprehensively attenuate IFN signaling. […] In contrast, the addition of compound 47 to PTP1B^−/− MEF cells further increased the IFN-γ mediated TC-PTP substrate pJAK1/Y1034/Y1035 level with no alteration of PTP1B substrate JAK2/Y1007/Y1008 phosphorylation.

CD8+ naïve T-cells = assay: Degradation, STAT phosphorylation and activation in CD8+ naive T-cells (flow cytometry); assay type: cell-based, mouse
Protocol: In (A) purified CD8^+ naïve T-cells from control (Ptpn2^fl/fl) and Lck-Cre; Ptpn2^fl/fl mice (n=3/genotype/condition) were incubated for 48 hours with IL-7 in the presence or absence of compound 47 as indicated, and TC-PTP and PTP1B protein levels were monitored by flow cytometry. (B) show vehicle-treated control, TCPTP-deficient Lck-Cre; Ptpn2^fl/fl and compound 47-treated control naïve CD8^+ T-cells were stimulated with plate-bound α-CD3/α-CD28 for 48 hours to promote T-cell activation. Basal STAT-1 (p(Y701) STAT-1) and STAT-5 (p(Y694) STAT-5) phosphorylation were assessed by flow cytometry. (C) cell size (FSC-A) and the T-cell activation markers CD25, CD69 and CD44 (MFI: mean fluorescence intensities) were measured by flow cytometry. (dot (●) represents Ptpn2^fl/fl+Vehicle, square (▪) represents Lck-Cre; Ptpn2^fl/fl+Vehicle, triangle (▴) represents Ptpn2^fl/fl+ compound 47).
Beyond attenuating JAK/STAT signaling in tumor cells, PTP1B and TC-PTP also have fundamental roles in T-cells, and the deletion of either TC-PTP or PTP1B in T-cells can markedly enhance anti-tumor immunity. TC-PTP attenuates T-cell receptor (TCR) signaling by dephosphorylating and inactivating the Src family kinase LCK. TC-PTP attenuates JAK/STAT1/5 signaling in response to cytokines such as IFNs and IL-2, which are required for the activation, clonal expansion, and differentiation of T-cells. The deletion of TC-PTP in T-cells enhances immunosurveillance and inhibits the growth of syngeneic tumors in mice and the anti-tumor efficacy of adoptively transferred T-cells. PTP1B also negatively regulates IL-2-induced JAK/STAT5 signaling in T-cells, and its deletion or inhibition in vivo can enhance the anti-tumor activity of T-cells. Accordingly, the impact of targeting PTP1B and TC-PTP with compound 47 on JAK/STAT signaling and the activation of T-cells after crosslinking the TCR was assessed. The effects of compound 47 were compared with the genetic deletion of TC-PTP (encoded by Ptpn2) in T-cells (Lck-Cre; Ptpn2^fl/fl). First, the impact of compound 47 on TC-PTP and PTP1B protein levels was assessed by flow cytometry using validated antibodies. […] The degradation of TC-PTP and PTP1B was accompanied by a more than 3-fold increase in STAT1 Y701 phosphorylation and a 2-fold increase in STAT5 Y694 phosphorylation detected after crosslinking the TCR with α-CD3/α-CD28 to activate T-cells (FIG. 9B). Importantly, the promotion of pSTAT1/Y701 and pSTAT5/Y694 by compound 47 treatment exceeded that achieved by the genetic deletion of TC-PTP, consistent with compound 47 targeting both TC-PTP and PTP1B to enhance signaling. […] CD25 (IL-2 receptor a), and CD69 (FIG. 9C). […] This was not necessarily a surprise since TC-PTP, but not PTP1B, attenuates TCR signaling in naive CD8^+ T-cells.

PTP1B and TC-PTP [2] = assay: Immunofluorescence of PTP1B and TC-PTP in U2OS cells; assay type: cell-based; settings: 1 μM, 3 hours and 24 hours
Protocol: MG132 (20 μM) was used along with compound 47 to block PTP1B and TC-PTP degradation.

[3] = after crosslinking the TCR with α-CD3/α-CD28

## COc1cc(CC(=O)N[C@@H](Cc2ccccc2)C(=O)N[C@@H](Cc2ccc(C(F)(F)P(=O)(O)O)cc2)C(=O)N[C@@H](CCCCNC(=O)c2ccc(C)c(Br)c2)C(=O)NCc2cccc(CC(=O)N[C@H](C(=O)N3C[C@H](O)C[C@H]3C(=O)N[C@@H](C)c3ccc(-c4scnc4C)cc3)C(C)(C)C)c2)ccc1O [Compound 47, ((4-((S)-3-(((S)-6-(3-bromo-4-methylbenzamido)-1-((3-(2-(((S)-1-((2S,4R)-4-hydroxy-2-(((S)-1-(4-(4-methylthiazol-5-yl)phenyl)ethyl)carbamoyl)pyrrolidin-1-yl)-3,3-dimethyl-1-oxobutan-2-yl)amino)-2-oxoethyl)benzyl)amino)-1-oxohexan-2-yl)amino)-2-((S)-2-(2-(4-hydroxy-3-methoxyphenyl)acetamido)-3-phenylpropanamido)-3-oxopropyl)phenyl)difluoromethyl)phosphonic Acid] ({Phenylacetyl(4-OH,3-OMe)}-F[F2Pmp]K(Benzoyl(3-Br,4-Me))[NHCH2(1,3-C6H4)CH2CO][Tle][Hyp]-X1)
MC38 syngeneic tumor; 25 mg/kg
  CD8 T cell infiltration of tumor (CD8α IHC): high level of CD8-T cell infiltration
MC38 syngeneic tumor; 25 and 50 mg/kg i.p. daily, ten days
  MC38 tumor growth: significantly inhibits MC38 tumor growth
MC38 syngeneic tumor; 25 or 50 mg/kg
  PTP1B and TC-PTP degradation in vivo (MC38 tumor): induces PTP1B and TC-PTP degradation in vivo
PTP1B and TC-PTP [1]
  IFN-γ stimulated JAK2 and JAK1 phosphorylation: augmented
  PTP1B and TC-PTP removal: complete removal
CD8+ naïve T-cells
  TCR-induced activation of T-cells (cell size, CD44, CD25, CD69): enhanced the TCR-induced activation of T-cells
CD8+ naïve T-cells; 48 hr treatment
  TC-PTP and PTP1B protein levels in T-cells: effectively degraded
CD8+ naïve T-cells; [3]
  increase in STAT1 Y701 phosphorylation: more than 3 fold
  increase in STAT5 Y694 phosphorylation: 2 fold
PTP1B and TC-PTP [2]
  PTP1B and TC-PTP degradation by immunofluorescence: degraded cytoplasm-localized PTP1B and both nucleus- and cytoplasm-localized TC-PTP
